# Laboratory results published in patent US20060210479A1 (Dow Global Technologies Inc., priority 2004, published 2006).
# Where two headings read alike, the source gives them in different places.
# What was measured:
# [1] = system: excised human colorectal tissue; details: 2 mM/5% ethanol aerosol spray, rinsing, UV 320 nm
# Experimental: Excised tissue was received from human patients undergoing radical resection of the colon as a result of invasive cancer. Sections of tissue were received within 30 minutes of resection and the chelate solution applied as an aerosol spray followed by sequential aqueous rinsing to remove unbound chelate. The resulting tissue was then visualized under UV irradiation (320 nm) to detect the presence of the chelate (red-shifted emission).
# DU145 cells = details: for EuQCTME Cell Binding (fluorescence per well): 1 mM
structure (smiles),measurement,setting,value
"CCOP(=O)([O-])CN1CCN(Cc2ccc3cc(C)ccc3n2)CCN(CP(=O)([O-])OCC)CCN(CP(=O)([O-])OCC)CC1.[Eu+3] [Eu-QCTME, Eu(III) N-(6-methyl-2-quinolylmethyl)-N′,N″,N′″-tris(methylenephosphonic acid ethyl ester)-1,4,7,10-tetraazacyclododecane]",localization in adjacent normal tissue,[1],no detectable localization
same,localization in diseased tissue (adenocarcinoma and pre-malignant neoplasm),[1],found to localize in diseased tissue
same,EuQCTME Cell Binding (fluorescence per well),DU145 cells; 2 min,"27,884"
same,EuQCTME Cell Binding (fluorescence per well),DU145 cells; 5 min,"10,040"
same,EuQCTME Cell Binding (fluorescence per well),DU145 cells; 15 min,747
same,EuQCTME Cell Binding (fluorescence per well),DU145 cells; 30 min,"19,868"
same,EuQCTME Cell Binding (fluorescence per well),DU145 cells; 45 min,"10,987"
same,EuQCTME Cell Binding (fluorescence per well),DU145 cells; 60 min,"3,235"
same,EuQCTME Cell Binding (fluorescence per well),DU145 cells; 120 min,"15,644"
same,EuQCTME Cell Binding (fluorescence per well),DU145 cells; 180 min,"9,038"
same,EuQCTME Cell Binding (fluorescence per well),DU145 cells; 240 min,"2,506"
same,Totals: Normalized total area under each curve (AUC),DU145 cells; over 240 min,49
